Patent US20240189287A1, “PERIPHERALLY RESTRICTED CB1 RECEPTOR BLOCKERS AND USES THEREOF” (BIONANOSIM (BNS) LTD, priority 2021, published 2024)
Like-named read-outs stand apart in the source and are kept apart here.

Assays:
[1] = biological target: T1, CB1 receptor (Mus musculus (Mouse), UniProt P47746); experiment: CB1 receptor radioligand binding assay, [3H]CP-55,940 displacement, mouse brain membranes; conditions: mouse (m) CB1 receptor; read-out: CB1R Ki (nM) (m)
Method: (§1) Radioligand binding assays: Binding affinity was determined by a radioligand binding assay. The different BB8-conjugates binding to CB1 and CB2 receptors was assessed in competition displacement assays using [^3H]CP-55.940 as the radioligand and crude membranes from mouse brain for CB1 receptor and human kidney cells for CB2 receptor.
(§2) CB1 receptor binding assay: Mouse brain membranes were used as the source material for CB1 receptors. The displacement of specifically bound tritiated CP-55.940 from these membranes using a standard filtration assay was used to determine the Ki values for the test compounds. Briefly. 20 μg of protein was incubated for 1 h at 30° C. in the presence of 0.5 nM [^3H]CP-55,940 and various concentrations (10^−5M-10^−11M) of test compound/control, final volume of 1 mL. The incubation was terminated by rapid filtration and washing, and the amount of specifically bound [^3H]CP-55,940 was determined. Briefly, membranes with bound [^3H]CP-55,940 were separated and washed from free ligand by vacuum filtration, adsorbing the membrane onto a Whatman glass microfiber filter paper ([…], Cat #1821271). Finally, the Whatman filter paper with adsorbed membranes was cut and placed in scintillation liquid (Ultima Gold) for 1 h at 25° C. followed by a β counter reading of bound [^3H]CP-55,940 radioligand. All data were in triplicates with Ki values determined using GraphPad Prism 7.02 analysis software. […] In some cases, membranes from human source were used to determine CB1 receptor binding affinity.

[2] = biological target: CB1 receptor (Homo sapiens (Human), UniProt P21554); experiment: CB1 receptor radioligand binding assay, membranes from human source; conditions: human (h) CB1 receptor; read-out: CB1R Ki (nM) (h)
Method: as §1, §2

[3] = biological target: CB2 receptor (Homo sapiens (Human), UniProt P34972); experiment: CB2 receptor radioligand binding assay, [3H]CP-55,940 displacement, human kidney membranes; conditions: read-out: hCB2R Ki
Method: as §1
CB2 receptor binding assay: Human kidney membranes were used as the source material for CB2 receptors. The displacement of specifically bound tritiated CP-55,940 from these membranes using a standard filtration assay was used to determine the Ki values for the test compounds. Briefly, 1.25 μg of protein was incubated for 1.5 h at 30° C. in the presence of 0.5 nM [^3H]CP-55,940 and various concentrations (10^−5M-10^−11M) of test compound/control, final volume of 1 mL. The incubation was terminated by rapid filtration and washing, and the amount of specifically bound [^3H]CP-55,940 was determined. Briefly, membranes with bound [^3H]CP-55,940 were separated and washed from free ligand by vacuum filtration, adsorbing the membrane onto a Whatman glass microfiber filter paper ([…], Cat #1821271). Finally, the Whatman filter paper with adsorbed membranes was cut and placed in scintillation liquid (Ultima Gold) for 1 h at 25° C. followed by a β counter reading of bound [^3H]CP-55,940 radioligand. All data were in triplicates with Ki values determined using GraphPad Prism 7.02 analysis software.

[4] = biological target: T1, CB1 receptor; experiment: [35S]GTPγS binding assay for CB1 receptor, mouse brain membranes; format: biochemical; conditions: nature of binding: agonist/antagonist/inverse agonist
Method: For CB1 receptor-mouse brains were dissected and P2 membranes prepared and resuspended at ˜2 μg protein/μL in 1 ml assay buffer (50 mM Tris HCl, 9 mM MgCl2, 0.2 mM EDTA, 150 mM NaCl; pH 7.4). Ligand-stimulated [^35S]GTPγS binding was assayed as described previously (Tam et al., JCI 2010). Briefly, membranes (10 μg protein) were incubated in assay buffer containing 100 μM GDP, 0.05 nM [^35S]GTPγS, test compounds at various concentrations (CP55940/Rimonabant as controls and test compounds for BB8 conjugates), and 1.4 mg/mL fatty acid-free BSA in siliconized glass tubes. Membranes with bound ligand ([^35S]GTPγS) were separated from free ligand by vacuum filtration and were analyzed using β counter as described above. Non-specific binding was determined using 10 μM GTPS (cold GTP). Basal binding was assayed in the absence of the tested compound and in the presence of GDP.

[5] = system: MDR1-MDCKII cells; experiment: MDR1-MDCK II cell permeation assay (bi-directional permeability, P-gp efflux); format: in vitro ADME
Method: (§3) Test and reference compounds were diluted with transport buffer (HBSS with 10 mM Hepes, pH 7.4) from stock solution to a concentration of 2 μM (DMSO<1%) and applied to the apical or basolateral side of the cell monolayer. Permeation of the test compounds from A to B direction or B to A direction was determined in duplicate with/without P-gp inhibitor (GF120918, 10 μM). […] The plate was incubated for 2.5 hours in CO2 incubator at 37±1° C., with 5% CO2 at saturated humidity without shaking. In addition, the efflux ratio of each compound was also determined. Test and reference compounds were quantified by LC-MS/MS analysis based on the peak area ratio of analyte/IS.
(§4) The in vitro bi-directional permeability across MDR1-MDCKII cells including P-glycoprotein (Pgp, ABCB1) efflux in the presence and absence of a P-gp inhibitor is an indicator as to the tendency of an orally administered compound to penetrate the brain.

[6] = system: P-gp (MDR1, ABCB1); experiment: as above; format: in vitro ADME; conditions: dog; for Papp at 2.5 h, 2 μM: A to B
Method: as §3, §4

[7] = Tissue distribution: brain, plasma and liver levels after oral dosing; format: in vivo, C57BL/6J mice; conditions: male, C57BL/6J, mouse, in vivo, po, 10 mg/kg
Method: Tissue distribution and pharmacokinetics: Tissue levels of antagonist: 3 male C57BL/6J mice (7-9 weeks, PO group) were used in this study. Mice were fasted prior to administration of test article and had access to food 4 hours post dosing. Appropriate amount of test article was accurately weighted and mixed with the appropriate volume of vehicle to get a clear oral solution. The formulation was prepared on the day of dosing, and mice were dosed via oral gavage up to 4 hr after formulation was prepared. After 1 hour, mice were scarified and about 200 μL blood was collected from cardiac puncture followed by plasma preparation. Brain and liver were removed and further processed. Dose formulation and sample analysis was performed by LC-MS/MS method.
The peripherality of selected BB8 conjugates (BNS) was evaluated in vivo measuring their respective brain, plasma, and liver levels 1 hr following 10 mg/kg oral administration.

[8] = system: HepG2 Cells; experiment: Cell Viability Assay in HepG2 Cells at 72 h; format: cell-based, human; conditions: Homo sapiens, HepG2, 72 h; read-out: Relative IC50
Method: The liver plays a central role in transforming and clearing chemicals, and therefore is susceptible to toxicity of these agents. BNS808, BNS822 and other selected compounds were tested in the HepG2 assay using […] to evaluate cytotoxicity.

[9] = biological target: CYP 2D6 (Homo sapiens (Human), UniProt P10635); experiment: CYP inhibition in human liver microsomes; format: in vitro ADME; conditions: CYP isozyme 2D6, standard inhibitor
Method: To evaluate the in vitro CYP inhibition of BNS808 and BNS822, the compounds were tested in human liver microsomes that are rich in drug metabolizing enzymes, including CYPs 1A2, 2C9, 2C19, 2D6, 3A4.

[10] = MDCK-MDR1, pH 7.4, with GF120918, 10 μM, efflux ratio in the presence of P-gp inhibitor GF120918, read-out: MDR1 B:A/A:B (+P-gp inhibitor)
[11] = MDCK-MDR1, pH 7.4, efflux ratio, without P-gp inhibitor, read-out: MDR1 B:A/A:B

T1 sequence (P47746 whole entry): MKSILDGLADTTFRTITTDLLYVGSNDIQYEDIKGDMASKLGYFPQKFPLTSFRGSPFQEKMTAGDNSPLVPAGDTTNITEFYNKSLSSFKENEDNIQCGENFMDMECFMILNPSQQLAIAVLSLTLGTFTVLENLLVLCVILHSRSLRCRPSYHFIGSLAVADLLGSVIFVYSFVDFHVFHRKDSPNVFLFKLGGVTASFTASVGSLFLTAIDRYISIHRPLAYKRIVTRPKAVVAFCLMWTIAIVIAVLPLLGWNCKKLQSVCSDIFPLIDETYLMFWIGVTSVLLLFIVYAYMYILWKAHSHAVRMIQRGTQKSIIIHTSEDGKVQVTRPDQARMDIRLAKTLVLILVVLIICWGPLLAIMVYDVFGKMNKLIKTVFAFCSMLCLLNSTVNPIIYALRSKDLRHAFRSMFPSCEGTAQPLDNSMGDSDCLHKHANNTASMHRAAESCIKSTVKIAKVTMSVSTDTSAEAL
Chain of CB1 receptor (Homo sapiens (Human), UniProt P21554) (P21554 whole entry): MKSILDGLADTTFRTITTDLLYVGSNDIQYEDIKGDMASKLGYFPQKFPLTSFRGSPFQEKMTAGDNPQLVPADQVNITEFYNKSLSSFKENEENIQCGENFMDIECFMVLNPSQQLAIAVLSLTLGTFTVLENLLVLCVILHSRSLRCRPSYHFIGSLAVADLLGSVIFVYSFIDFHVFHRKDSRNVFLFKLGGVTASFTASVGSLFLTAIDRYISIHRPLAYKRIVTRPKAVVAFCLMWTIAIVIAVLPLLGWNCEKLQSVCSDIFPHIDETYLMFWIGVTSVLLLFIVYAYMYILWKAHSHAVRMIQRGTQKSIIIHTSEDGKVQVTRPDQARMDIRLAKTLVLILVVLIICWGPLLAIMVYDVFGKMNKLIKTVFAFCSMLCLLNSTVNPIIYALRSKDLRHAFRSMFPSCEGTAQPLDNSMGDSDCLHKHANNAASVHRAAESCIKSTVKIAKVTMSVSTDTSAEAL
Chain of CB2 receptor (P34972 whole entry): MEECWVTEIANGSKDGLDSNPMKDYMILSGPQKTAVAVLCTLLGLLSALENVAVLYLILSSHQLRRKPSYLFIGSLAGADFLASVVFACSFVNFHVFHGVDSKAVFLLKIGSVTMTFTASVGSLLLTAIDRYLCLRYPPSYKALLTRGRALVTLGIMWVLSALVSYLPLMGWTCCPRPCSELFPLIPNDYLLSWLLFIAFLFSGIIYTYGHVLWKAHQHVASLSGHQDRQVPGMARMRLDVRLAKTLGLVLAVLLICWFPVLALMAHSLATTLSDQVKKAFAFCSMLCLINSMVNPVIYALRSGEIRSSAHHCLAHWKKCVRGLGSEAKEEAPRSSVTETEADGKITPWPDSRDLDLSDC
Chain of CYP 2D6 (P10635 whole entry): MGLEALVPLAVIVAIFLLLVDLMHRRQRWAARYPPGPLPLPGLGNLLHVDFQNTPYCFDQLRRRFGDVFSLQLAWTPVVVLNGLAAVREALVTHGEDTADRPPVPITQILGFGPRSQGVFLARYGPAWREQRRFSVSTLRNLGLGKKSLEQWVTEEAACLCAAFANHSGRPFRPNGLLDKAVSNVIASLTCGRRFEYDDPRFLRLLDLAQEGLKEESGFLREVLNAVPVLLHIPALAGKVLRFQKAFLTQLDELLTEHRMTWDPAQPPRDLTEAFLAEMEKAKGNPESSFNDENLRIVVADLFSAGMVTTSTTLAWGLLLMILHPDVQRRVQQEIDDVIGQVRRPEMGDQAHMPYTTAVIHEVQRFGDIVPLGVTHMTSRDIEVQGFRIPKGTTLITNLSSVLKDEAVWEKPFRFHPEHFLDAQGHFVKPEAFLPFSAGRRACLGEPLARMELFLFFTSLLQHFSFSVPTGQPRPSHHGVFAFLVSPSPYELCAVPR

| Compound | Ki [1] [nM] | Ki [2] [nM] | Ki [3] [nM] | mCB1R GTPγ[^35S] (activity) [4] | P-gp substrate [5] | Rank Papp [5] | efflux ratio at 2.5 h, 2 μM [6, 10] | Papp at 2.5 h, 2 μM ([6]; MDCK-MDR1, pH 7.4) [×10⁻⁶ cm/s] | efflux ratio at 2.5 h, 2 μM [6, 11] | Kp at 1 h [7] | IC50 [8] [nM] | % Inhibition [9] [%] |
| --- | --- | --- | --- | --- | --- | --- | --- | --- | --- | --- | --- | --- |
| O=C(NC1CCCOc2c1nn(-c1ccccc1Cl)c2-c1ccc(Cl)cc1)c1cccnc1 (stereo not drawn) [BNS803, N-[2-(2-chlorophenyl)-3-(4-chlorophenyl)-5,6,7,8-tetrahydrooxepino[3,2-c]pyrazol-8-yl]pyridine-3-carboxamide] | 22.4 | 6.48 | > 9110 | Inverse agonist | No | High | 0.63 | 13.2 | 0.77 | 1.6 | – | – |
| CC(C)(Oc1ccc(Cl)cc1)C(=O)NC1CCCOc2c1nn(-c1ccccc1Cl)c2-c1ccc(Cl)cc1 (stereo not drawn) [BNS804, 2-(4-chlorophenoxy)-N-[2-(2-chlorophenyl)-3-(4-chlorophenyl)-5,6,7,8-tetrahydrooxepino[3,2-c]pyrazol-8-yl]-2-methyl-propanamide] | 1.16 | 1.96 | 5700 | Antagonist | – | – | – | – | – | – | – | – |
| Cc1ccc(S(=O)(=O)NC2CCCOc3c2nn(-c2ccccc2Cl)c3-c2ccc(Cl)cc2)cc1 (stereo not drawn) [BNS807, N-[2-(2-chlorophenyl)-3-(4-chlorophenyl)-5,6,7,8-tetrahydrooxepino[3,2-c]pyrazol-8-yl]-4-methyl-benzenesulfonamide] | 10 | 1.4 | 1650 | Inverse agonist | – | – | – | – | – | – | 18000 | – |
| CS(=O)(=O)NC1CCCOc2c1nn(-c1ccccc1Cl)c2-c1ccc(Cl)cc1 (stereo not drawn) [BNS809, N-[2-(2-chlorophenyl)-3-(4-chlorophenyl)-5,6,7,8-tetrahydrooxepino[3,2-c]pyrazol-8-yl]methanesulfonamide] | 33.8 | 7.7 | > 9110 | Antagonist | – | – | – | – | – | – | – | – |
| C=C[C@H]1C[N@@]2CC[C@H]1C[C@@H]2[C@@H](O)c1ccnc2ccc(OC)cc12 [Quinidine, reference compound] | – | – | – | – | – | – | – | – | – | – | – | 96.2 |

The next lines start with results.

| Ki [1] [nM] | Ki [2] [nM] | Ki [3] [nM] | mCB1R GTPγ[^35S] (activity) [4] | P-gp substrate [5] | Rank Papp [5] | efflux ratio at 2.5 h, 2 μM [6, 10] | Papp at 2.5 h, 2 μM ([6]; MDCK-MDR1, pH 7.4) [×10⁻⁶ cm/s] | efflux ratio at 2.5 h, 2 μM [6, 11] | Kp at 1 h [7] | IC50 [8] [nM] | Compound | % Inhibition [9] [%] |
| --- | --- | --- | --- | --- | --- | --- | --- | --- | --- | --- | --- | --- |
| 805 | 232 | – | – | – | – | – | – | – | – | – | O=C(NC1CCCOc2c1nn(-c1ccccc1Cl)c2-c1ccc(Cl)cc1)c1nc[nH]n1 (stereo not drawn) [BNS801, N-[2-(2-chlorophenyl)-3-(4-chlorophenyl)-5,6,7,8-tetrahydrooxepino[3,2-c]pyrazol-8-yl]-1H-1,2,4-triazole-3-carboxamide] | – |
| 77.8 | 8.75 | 8340 | Inverse agonist | Partial | Moderate | 0.55 | 4.93 | 0.82 | – | – | O=C(NC1CCCOc2c1nn(-c1ccccc1Cl)c2-c1ccc(Cl)cc1)c1cnccn1 (stereo not drawn) [BNS805, N-[2-(2-chlorophenyl)-3-(4-chlorophenyl)-5,6,7,8-tetrahydrooxepino[3,2-c]pyrazol-8-yl]pyrazine-2-carboxamide] | – |
| 165 | 23.7 | > 9110 | Antagonist; In. Agonist >[c] | – | – | – | – | – | – | – | O=C(NC1CCCOc2c1nn(-c1ccccc1Cl)c2-c1ccc(Cl)cc1)c1ncc[nH]1 (stereo not drawn) [BNS806, N-[2-(2-chlorophenyl)-3-(4-chlorophenyl)-5,6,7,8-tetrahydrooxepino[3,2-c]pyrazol-8-yl]-1H-imidazole-2-carboxamide] | – |
